Where a name gives a salt, the structure may show the parent alone.

The target of series [1] is E. coli β-glucuronidase (eβG) (Escherichia coli, UniProt P05804). As to the kind of experiment: Inhibition of purified recombinant eβG activity (pNPG substrate, OD420). Type of series: biochemical. As to conditions: for remaining activity at 10 µM: read-out: Percent activity of E. coli-glucuronidase at 10 μM (%). On the procedure: (§1) The pyrazolo[4,3-c]quinoline derivatives were examined for their inhibition against eβG or hβG activity. Purified recombinant eβG or hβG proteins were incubated with serial dilution of the inhibitors, respectively. The βG activity was determined by color development of a βG substrate, pNPG. The hydrolysis product of pNPG, PNP was measured by OD420.
E. coli β-glucuronidase (eβG), sequence (P05804 whole entry): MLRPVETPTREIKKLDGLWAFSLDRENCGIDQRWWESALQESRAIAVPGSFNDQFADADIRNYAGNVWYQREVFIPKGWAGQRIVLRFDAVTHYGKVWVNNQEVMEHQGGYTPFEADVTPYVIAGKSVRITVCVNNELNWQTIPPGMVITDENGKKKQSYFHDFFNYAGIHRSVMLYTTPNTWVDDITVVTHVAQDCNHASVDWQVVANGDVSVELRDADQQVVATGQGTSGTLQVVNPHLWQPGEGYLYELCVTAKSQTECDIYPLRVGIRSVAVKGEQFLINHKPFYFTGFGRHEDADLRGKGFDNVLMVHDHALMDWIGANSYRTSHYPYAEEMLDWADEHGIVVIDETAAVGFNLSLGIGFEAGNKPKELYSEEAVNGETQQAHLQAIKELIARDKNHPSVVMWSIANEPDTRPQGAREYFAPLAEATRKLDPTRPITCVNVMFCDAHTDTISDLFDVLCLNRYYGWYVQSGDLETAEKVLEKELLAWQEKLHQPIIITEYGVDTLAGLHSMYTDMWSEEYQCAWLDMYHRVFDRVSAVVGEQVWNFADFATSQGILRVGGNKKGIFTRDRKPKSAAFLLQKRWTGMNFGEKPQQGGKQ

Series [2] has as its target T1, human liver-glucuronidase (hβG) (Homo sapiens, UniProt P08236).
T1 sequence (P08236 23-651): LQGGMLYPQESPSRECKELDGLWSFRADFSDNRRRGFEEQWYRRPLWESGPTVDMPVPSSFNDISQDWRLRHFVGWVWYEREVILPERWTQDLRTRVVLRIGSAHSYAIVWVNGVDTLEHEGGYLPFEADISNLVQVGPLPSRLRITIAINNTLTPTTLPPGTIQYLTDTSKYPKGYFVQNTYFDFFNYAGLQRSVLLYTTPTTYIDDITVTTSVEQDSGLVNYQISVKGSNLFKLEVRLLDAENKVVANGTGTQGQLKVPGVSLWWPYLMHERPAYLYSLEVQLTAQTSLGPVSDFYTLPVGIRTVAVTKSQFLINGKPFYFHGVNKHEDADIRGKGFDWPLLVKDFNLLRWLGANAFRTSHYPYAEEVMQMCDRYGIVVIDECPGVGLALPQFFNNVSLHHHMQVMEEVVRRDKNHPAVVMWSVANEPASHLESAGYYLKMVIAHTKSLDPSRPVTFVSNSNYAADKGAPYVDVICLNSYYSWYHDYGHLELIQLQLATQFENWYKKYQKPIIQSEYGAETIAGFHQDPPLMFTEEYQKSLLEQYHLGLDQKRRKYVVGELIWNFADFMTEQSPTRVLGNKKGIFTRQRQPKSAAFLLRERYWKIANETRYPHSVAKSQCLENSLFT
The experiment in a line: Inhibition of purified recombinant hβG activity (pNPG substrate, OD420). Type of series: biochemical. The following applies: 10 μM, purified recombinant hβG, pNPG, means ± S.D. of at least three separate experiments; for remaining activity at 10 µM: read-out: Percent activity of human liver-glucuronidase at 10 μM (%). How it is done: as §1

Broadly, the melting point is the temperature of the solid-liquid transition. In turn, `Cc1ccc(Nc2nc3cc(F)ccc3c3[nH]nc(N)c23)cc1` (as salt: salt) [Compound 9, 7-Fluoro-N^4-(p-tolyl)-1H-pyrazolo[4,3-c]quinoline-3,4-diamine] yielded a melting point of 246 to 247 °C. Take `Nc1n[nH]c2c1c(Nc1ccc(Cl)cc1)nc1ccc(Cl)cc12` (as salt: salt) [Compound 10, 8-Chloro-N^4-(4-chlorophenyl)-1H-pyrazolo[4,3-c]quinoline-3,4-diamine]: the melting point was in the range of 270 to 272 °C. The same measure, in the same setting: for `Cc1ccc(Nc2nc3ccc(Cl)cc3c3[nH]nc(N)c23)cc1` (as salt: salt) [Compound 11, 8-Chloro-N^4-(p-tolyl)-1H-pyrazolo[4,3-c]quinoline-3,4-diamine] the value was 261 °C; for `CSc1ccc(Nc2nc3ccccc3c3[nH]nc(N)c23)cc1` (as salt: salt) [Compound 20, 3-Amino-4-(4-methylthiophenylamino)-1H-pyrazolo[4,3-c]quinoline], 269 to 271 °C; for `Nc1n[nH]c2c1c(Nc1ccc([N+](=O)[O-])cc1)nc1ccccc12` (as salt: salt) [Compound 21, 3-Amino-4-(4-nitrophenylamino)-1H-pyrazolo[4,3-c]quinoline], 303 to 305 °C. For `Nc1n[nH]c2c1c(Nc1ccc(C(=O)O)cc1)nc1ccccc12` (as salt: salt) [Compound 22, 4-(3-Amino-1H-pyrazolo[4,3-c]quinolin-4-ylamino)benzoic acid], the melting point lay in the range of 362 to 364 °C. The same measure, in the same setting: for `CC(=O)c1ccc(Nc2nc3ccccc3c3[nH]nc(N)c23)cc1` (as salt: salt) [Compound 23, 3-Amino-4-(4-acetylphenylamino)-1H-pyrazolo[4,3-c]quinoline] the value was 249 to 251 °C; for `Nc1n[nH]c2c1c(Nc1cccc(O)c1)nc1ccccc12` (as salt: salt) [Compound 24, 3-Amino-4-(3-hydroxyphenylamino)-1H-pyrazolo[4,3-c]quinoline], 319 to 321 °C; for `Cc1cccc(Nc2nc3ccccc3c3[nH]nc(N)c23)c1` (as salt: salt) [Compound 25, N^4-(m-Tolyl)-1H-pyrazolo[4,3-c]quinoline-3,4-diamine], 281 to 282 °C. For the compound `Cc1cccc2c1nc(Nc1ccc(Cl)cc1)c1c(N)n[nH]c12` [Compound 6, N^4-(4-Chlorophenyl)-6-methyl-1H-pyrazolo[4,3-c]quinoline-3,4-diamine], the melting point was in the range of 249 to 250 °C. The remaining activity at 10 µM in series [1] turned out to be 6 ± 1%. Besides, the remaining activity at 10 µM in series [2] was found to be 78.5 ± 0.71%. For `Cc1ccc(Nc2nc3c(C)cccc3c3[nH]nc(N)c23)cc1` [Compound 7, 6-Methyl-N^4-(p-tolyl)-1H-pyrazolo[4,3-c]quinoline-3,4-diamine], in that order: 270 to 271 °C, 3 ± 1% and 74 ± 1%. The corresponding values for `Nc1n[nH]c2c1c(Nc1ccc(Cl)cc1)nc1cc(F)ccc12` [Compound 8, N^4-(4-Chlorophenyl)-7-fluoro-1H-pyrazolo[4,3-c]quinoline-3,4-diamine] are 254 °C (dec.), 4 ± 1% and 83.5 ± 0.71%. Take `Cc1ccc(Nc2nc3cc(F)ccc3c3[nH]nc(N)c23)cc1` [Compound 9, 7-Fluoro-N^4-(p-tolyl)-1H-pyrazolo[4,3-c]quinoline-3,4-diamine]: the values for the remaining activity at 10 µM in series [1] and in series [2] were 4 ± 1% and 81.5 ± 0.71%, respectively. For the compound `Nc1n[nH]c2c1c(Nc1ccc(Cl)cc1)nc1ccc(Cl)cc12` [Compound 10, 8-Chloro-N^4-(4-chlorophenyl)-1H-pyrazolo[4,3-c]quinoline-3,4-diamine], the values for the remaining activity at 10 µM in series [1] and in series [2] were 3 ± 1% and 77 ± 1.41%, respectively. The corresponding values for `Cc1ccc(Nc2nc3ccc(Cl)cc3c3[nH]nc(N)c23)cc1` [Compound 11, 8-Chloro-N^4-(p-tolyl)-1H-pyrazolo[4,3-c]quinoline-3,4-diamine] are 3 ± 1% and 80.5 ± 2.12%. In the case of `Nc1n[nH]c2c1c(Nc1ccc(Cl)cc1)nc1ccc(Br)cc12` [Compound 12, 8-Bromo-N^4-(4-chlorophenyl)-1H-pyrazolo[4,3-c]quinoline-3,4-diamine], the melting point is 264 °C (dec.). Further, the remaining activity at 10 µM in series [1] came to 5 ± 1%. In addition, the remaining activity at 10 µM in series [2] amounted to 79.3 ± 2.63%. For `Cc1ccc(Nc2nc3ccc(Br)cc3c3[nH]nc(N)c23)cc1` [Compound 13, S-Bromo-N^4-(p-tolyl)-1H-pyrazolo[4,3-c]quinoline-3,4-diamine], the “Percent activity of E. coli-glucuronidase at 10 μM (%)” value in series [1] (10 μM, purified recombinant eβG, pNPG, means ± S.D. of at least three separate experiments) was found to be 4 ± 1%. The “Percent activity of human liver-glucuronidase at 10 μM (%)” value in series [2] amounted to 80.21 ± 2.14%. As to `Nc1n[nH]c2c1c(Nc1ccccc1)nc1ccccc12` [Compound 14, 3-Amino-4-anilino-1H-pyrazolo[4,3-c]quinoline], the melting point lay in the range of 256 to 258 °C. For the same compound, the remaining activity at 10 µM in series [1] was determined as 4 ± 1%. Besides, in series [2], the remaining activity at 10 µM amounted to 105.5 ± 0.71%. In the case of `CSc1ccc(Nc2nc3ccccc3c3[nH]nc(N)c23)cc1` [Compound 20, 3-Amino-4-(4-methylthiophenylamino)-1H-pyrazolo[4,3-c]quinoline], the remaining activity at 10 µM in series [1] amounted to 5 ± 1.41%; in series [2], 108 ± 3.54%. For the compound `Nc1n[nH]c2c1c(Nc1ccc([N+](=O)[O-])cc1)nc1ccccc12` [Compound 21, 3-Amino-4-(4-nitrophenylamino)-1H-pyrazolo[4,3-c]quinoline], the remaining activity at 10 µM turned out to be 46.5 ± 4.95% in series [1] and 90.86 ± 0.32% in series [2]. Take `Nc1n[nH]c2c1c(Nc1ccc(C(=O)O)cc1)nc1ccccc12` [Compound 22, 4-(3-Amino-1H-pyrazolo[4,3-c]quinolin-4-ylamino)benzoic acid]: the remaining activity at 10 µM was determined as 15.5 ± 1.71% in series [1] and 95 ± 4.24% in series [2]. Regarding `CC(=O)c1ccc(Nc2nc3ccccc3c3[nH]nc(N)c23)cc1` [Compound 23, 3-Amino-4-(4-acetylphenylamino)-1H-pyrazolo[4,3-c]quinoline], the remaining activity at 10 µM in series [1] is 3 ± 1%; in series [2], 104 ± 1.41%.

Take `Nc1n[nH]c2c1c(Nc1cccc(O)c1)nc1ccccc12` [Compound 24, 3-Amino-4-(3-hydroxyphenylamino)-1H-pyrazolo[4,3-c]quinoline]: the values for the remaining activity at 10 µM in series [1] and in series [2] were 13.5 ± 0.71% and 105 ± 1.41%, respectively. For `Cc1cccc(Nc2nc3ccccc3c3[nH]nc(N)c23)c1` [Compound 25, N^4-(m-Tolyl)-1H-pyrazolo[4,3-c]quinoline-3,4-diamine], in that order: 69.9 ± 0.02% and 102 ± 2.08%. On to `O=C(Nc1ccccc1)Nc1n[nH]c2c1c(=O)[nH]c1ccccc12` [Compound 34, 1-(4-oxo-4,5-dihydro-1H-pyrazolo[4,3-c]quinolin-3-yl)-3-phenylurea], for which the figures for the remaining activity at 10 µM in series [1] and in series [2] were 86 ± 1% and 82 ± 1.41%, respectively. For the compound `CCOc1ccc(NC(=S)N(CCO)Cc2cc3cc(C)cc(C)c3[nH]c2=O)cc1` [βG-Inh, 1-((6,8-Dimethyl-2-oxo-1,2-dihydroquinolin-3-yl)methyl)-3-(4-ethoxyphenyl)-1-(2-hydroxyethyl) thiourea, reference compound], the remaining activity at 10 µM in series [1] turned out to be 3 ± 1%.
